The values below come from paper PMC4176481, “Influence of D-glutamine and D-glutamic acid sequences in optical peptide probes targeted against the cholecystokinin-2/gastrin-receptor on binding affinity, specificity and pharmacokinetic properties” (EJNMMI Research, 2013).

Starred links: 1 amine or outer side, 2 acyl side, 3 side chain; linkers in the order of their positions; H or OH if unused. Positions of bridges follow the written chain, without caps; N, C: chain ends. Non-standard residues stand in square brackets, D forms with d. Residues, ends and D or L forms follow the SMILES beside them. Chains are numbered I, II in the order given. *: point of attachment. X1 = CC(C)(C)c1cc(C=CC=CC=C2N(CCCS(=O)(=O)O)c3ccc(S(=O)(=O)O)cc3C2(C)CCCC(=O)*)c2cc3c(cc2[o+]1)N(CCCS(=O)(=O)O)C(C)(C)C=C3CS(=O)(=O)[O-]; Nle = CCCC[C@H](N)C(=O)O; X2 = O=C(C[*:1])[*:2]

The test system of one series is A431/CCK2R tumours. Description: In vivo NIRF imaging of CCK2R-expressing xenografts. The arrangement: species or system athymic nude mice. An excerpt: Female athymic nude mice (Hsd:Athymic Nude-Foxn1^nu nu/nu; Harlan Laboratories, Eystrup, Germany) were housed under standard conditions with water and food ad libitum. Mice were maintained under a low-pheophorbide diet (C 1039; Altromin, Lage, Germany) to reduce tissue autofluorescence. All procedures were approved by the regional animal committee (reg. number 02-007/10) and were in accordance with international guidelines on the ethical use of animals. Animals were anesthetized with 2% isoflurane during all procedures. To implement subcutaneous xenografts, 5 × 10^5 CCK2R transfected (A431/CCK2R) and non-transfected wild-type cells (A431/WT) were dispensed in Matrigel™ (BD Biosciences, Heidelberg, Germany) and injected into the right (A431/CCK2R cells) and left (A431/WT cells) flank of 8- to 12-week-old animals 10 to 15 days before in vivo imaging.
Xenografts were inoculated in athymic nude mice (Hsd:Athymic Nude-Foxn1^nu nu/nu; Harlan Laboratories) 10 to 15 days before imaging by subcutaneous injection of 0.5 million A431/CCK2R […] and A431/WT cells (right flank) dispersed in Matrigel™ (BD Biosciences). For in vivo fluorescence imaging, 108 nmol/kg QE or 54 nmol/kg bivQ probe was injected intravenously (i.v.), according to the results of a dose determination experiment, which was set up to identify the optimal relation between sensitivity and contrast (Additional file 1). […] Another group received 108 nmol/kg of the unconjugated fluorophore DY-754 to determine dye-mediated non-specific tumour uptake, and one group remained untreated to control for probe-unrelated NIR fluorescence in the animals. At defined time points between 0 and 8 h p.i., NIRF fluorescence images (excitation 615 to 665 nm, emission >750 nm) and white light images of the animals were obtained. By means of spectral unmixing, tissue autofluorescence was removed from the images. Subsequently, fluorescence intensities (FI) were analysed over the time in regions of interest (ROIs) that were placed upon the tumours and non-tumour tissue. As a measure of contrast between tumour and non-tumour fluorescence, tumour/background ratios (TBRs) were calculated as a quotient of FItumour/FInon-tumour.

The nature of series [1]: Metabolic (protease) stability in mouse liver homogenates. Type of series: in vitro ADME. Particulars: mouse liver homogenate, incubation up to 180 min, HPLC with UV/VIS detection at 750 nm, three parallels. The protocol:
Supplementary file 2191-219X-3-75-S3.pptx: Additional file 3: Metabolic (protease) stability of QE and bivQ against the degradation by mouse liver homogenates. The HPLC peak of non-degraded QE at 9.7 min elution time (a-I) decreased after 180 min of probe incubation in liver homogenate, whereas a second peak, representing degradation products, appeared at 7.2 min of elution (a-II). Degradation curves of (b) QE and (c) bivQ. […] Peaks were detected at 750 nm with a UV/VIS detector. Data represent three parallels. Click here for file
Supplementary file 2191-219X-3-75-S4.pptx: Additional file 4: Metabolic stability of the optical CCK2R targeted minigastrin dQ-MG-754 [[20]]. Degradation of dQ-MG-754 for comparison with QE and bivQ. […] Probe signal was detected at 750 nm with a UV/VIS detector. Data represent three parallels. Click here for file

Series [2] deals with A431/CCK2R and A431/WT tumours. Description: Ex vivo intratumoural probe distribution in cryosections (Odyssey scanner). The arrangement: species or system athymic nude mice. To be noted: acetone-fixed 30-μm cryosections of explanted xenografts, three specimens/group. An excerpt: To determine intratumoural distribution of the peptide probes ex vivo, acetone-fixed 30-μm cryosections of explanted xenografts were scanned mesoscopically in the near-infrared scanner Odyssey® (LI-COR, Bad Homburg, Germany) at 700 nm (autofluorescence) and 800 nm (probe fluorescence).

In the next series the test system is A431/CCK2R cells. Description: Target binding and internalization in vitro, fluorescence microscopy. Type of series: cell-based, human. To be noted: 0.5 μM, 30 min. As to the method:
(§1) Binding of the optical probes QE and bivQ to CCK2R-expressing (A431/CCK2R) and CCK2R-non-expressing (A431/WT) cells was investigated after incubation with 0.5 μM of each probe in culture medium for 30 min at 4°C to observe active surface receptor binding and at 37°C to check for internalization behaviour, which is mandatory for in vivo signal amplification. Incubation with 0.5 μM of the fluorochrome DY-754 should determine the role of the interaction of the peptide with the CCK2R for probe uptake. Probe incubation was followed by cell membrane staining with wheat germ agglutinin-Alexa Fluor®-555 (WGA-555, Invitrogen, Carlsbad, CA, USA), fixation in 4% (v/v) paraformaldehyde on ice and mounting in PermaFluor® Mounting medium (Thermo Fisher, Waltham, MA, USA), containing 0.2 μg/mL Hoechst 33258 (Applichem, Darmstadt, Germany) to stain cell nuclei. Fluorescence microscopy was carried out with the digital microscope EVOSfl (AMG, Bothell, WA, USA) equipped with three filter cubes for visualization of Hoechst (excitation 335 to 379 nm, emission 417 to 477 nm), WGA-555 (excitation 511 to 551 nm, emission 573 to 613 nm) and DY-754 (excitation 690 to 730 nm, emission 752 to 798 nm).

The subject of a further series is A431/WT cells. Description: Target binding in vitro, fluorescence microscopy, CCK2R-non-expressing cells. The format is cell-based, human. To be noted: 0.5 μM, 30 min. The protocol:
as §1

Series [3] can be described thus: Biodistribution, ex vivo NIRF of organs and xenografts 8 h p.i. The format is in vivo, athymic nude mice. As to the method: We investigated the biodistribution of the optical probes and of the fluorochrome DY-754 to determine the influence of the dye on tumour and organ accumulation. Therefore, 8 h p.i., ex vivo NIRF fluorescence images of the organs and the two xenografts (A431/CCK2R and A431/WT) per mouse were taken in combination with the placement of ROIs on these organs to assess semiquantitative fluorescence intensities.

The next series deals with A431/WT tumours. Description: In vivo NIRF imaging of CCK2R-negative xenografts. The arrangement: species or system athymic nude mice. To be noted: 1 to 8 h p.i.; i.v. 108 nmol/kg QE or 54 nmol/kg bivQ; n = 5. An excerpt: Female athymic nude mice (Hsd:Athymic Nude-Foxn1^nu nu/nu; Harlan Laboratories, Eystrup, Germany) were housed under standard conditions with water and food ad libitum. Mice were maintained under a low-pheophorbide diet (C 1039; Altromin, Lage, Germany) to reduce tissue autofluorescence. All procedures were approved by the regional animal committee (reg. number 02-007/10) and were in accordance with international guidelines on the ethical use of animals. Animals were anesthetized with 2% isoflurane during all procedures. […]
Xenografts were inoculated in athymic nude mice (Hsd:Athymic Nude-Foxn1^nu nu/nu; Harlan Laboratories) 10 to 15 days before imaging by subcutaneous injection of 0.5 million A431/CCK2R (left flank) and A431/WT cells (right flank) dispersed in Matrigel™ (BD Biosciences). For in vivo fluorescence imaging, 108 nmol/kg QE or 54 nmol/kg bivQ probe was injected intravenously (i.v.), according to the results of a dose determination experiment, which was set up to identify the optimal relation between sensitivity and contrast (Additional file 1). […] Another group received 108 nmol/kg of the unconjugated fluorophore DY-754 to determine dye-mediated non-specific tumour uptake, and one group remained untreated to control for probe-unrelated NIR fluorescence in the animals. […]

Series [4] deals with T1, cholecystokinin-2/gastrin receptor (CCK2R) (Homo sapiens, UniProt P32239).
T1 chain: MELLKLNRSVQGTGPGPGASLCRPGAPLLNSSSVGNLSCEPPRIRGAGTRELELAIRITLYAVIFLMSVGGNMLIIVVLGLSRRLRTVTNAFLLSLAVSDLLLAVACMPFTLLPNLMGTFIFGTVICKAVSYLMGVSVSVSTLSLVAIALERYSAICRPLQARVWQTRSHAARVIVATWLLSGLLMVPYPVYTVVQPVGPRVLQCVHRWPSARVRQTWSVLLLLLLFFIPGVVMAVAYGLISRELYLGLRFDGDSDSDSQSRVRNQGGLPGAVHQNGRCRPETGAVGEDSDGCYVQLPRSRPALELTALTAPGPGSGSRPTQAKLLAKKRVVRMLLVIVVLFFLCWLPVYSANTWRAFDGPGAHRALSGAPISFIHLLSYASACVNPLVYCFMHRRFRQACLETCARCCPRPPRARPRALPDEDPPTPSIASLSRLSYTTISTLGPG
Description: competition with bivQ probe on cells, NIR fluorescence.

Series [5] addresses T1, cholecystokinin-2/gastrin receptor …. Description: competition with QE probe on cells, NIR fluorescence.
Series [6] has the same target. Description: saturation binding on A431/CCK2R cells, NIR fluorescence.

On to `CCCC[C@H](NC(=O)[C@H](Cc1c[nH]c2ccccc12)NC(=O)CNC(=O)[C@H](Cc1ccc(O)cc1)NC(=O)[C@H](C)NC(=O)[C@@H](CCC(N)=O)NC(=O)[C@@H](CCC(N)=O)NC(=O)[C@@H](CCC(N)=O)NC(=O)CSC[C@H](NC(=O)CCCC1(C)C(=CC=CC=Cc2cc(C(C)(C)C)[o+]c3cc4c(cc23)C(CS(=O)(=O)[O-])=CC(C)(C)N4CCCS(=O)(=O)O)N(CCCS(=O)(=O)O)c2ccc(S(=O)(=O)O)cc21)C(=O)N[C@H](CCC(N)=O)C(=O)N[C@H](CCC(N)=O)C(=O)N[C@H](CCC(N)=O)C(=O)N[C@@H](C)C(=O)N[C@@H](Cc1ccc(O)cc1)C(=O)NCC(=O)N[C@@H](Cc1c[nH]c2ccccc12)C(=O)N[C@@H](CCCC)C(=O)N[C@@H](CC(=O)O)C(=O)N[C@@H](Cc1ccccc1)C(N)=O)C(=O)N[C@@H](CC(=O)O)C(=O)N[C@@H](Cc1ccccc1)C(N)=O` (some centres unmarked) [bivQ] (I: X1-C[dQ][dQ][dQ]AYGW[Nle]DF-NH2 / II: [dQ][dQ][dQ]AYGW[Nle]DF-NH2; linker I:1-II:N via X2), for which, in the series on A431/CCK2R tumours (8 h p.i., co-injection of 10-fold molar excess of non-fluorescent minigastrin, mean ± SD, n = 5), the “TBR, A431/CCK2R xenografts, under competition” value stood at 4.0 ± 1.2. The “tumour/background ratio (TBR), A431/CCK2R xenografts” value with A431/CCK2R tumours (8 h p.i., i.v. 108 nmol/kg QE or 54 nmol/kg bivQ, mean ± SD, n = 5) turned out to be 6.3 ± 1.4. For the same molecule, in the series on A431/CCK2R tumours (high-contrast imaging, discussion summary), the “TBR, CCK2R-expressing xenografts (summary bound)” value is recorded as greater than 6. Further, in [1], the “metabolic stability against degradation by liver proteases” value is given as “only a limited metabolic stability”. Also, in series [2], the “intratumoural fluorescence at 800 nm in tumour sections” value is reported as “only in the outer A431/CCK2R tumour regions”. Besides, the “probe localisation in A431/CCK2R cells at 4°C” value in the series on A431/CCK2R cells (4°C) is reported as “restricted to the cell membrane”. In addition, the “binding and internalization in A431/CCK2R cells at 37°C” value with A431/CCK2R cells (37°C, n = 3) was “binding and internalization”. Also, the “binding to A431/WT cells (no CCK2R expression)” value in the series with A431/WT cells was “no binding”. Moreover, the “fluorescence accumulation in stomach, small intestine and colon” value in [3] (n = 5) was “no fluorescence accumulation”. For the same molecule, in series [3] (n = 5, comparably high for DY-754 (p > 0.05)), the “uptake into A431/WT tumours (biodistribution)” value is “weak uptake”. Moreover, in the series with A431/WT tumours, the “TBR, A431/WT tumours” value is reported as less than 2.
What is called IC50 is the concentration needed to halve the response being measured. On to LEEEEEAYGWMDF [HG-13 minigastrin], for which the IC50 in series [4] was 16.6 nM; in [5], 16.7 nM.

B1: QE minigastrin probe (peptide)
chain: {DY‑754}-AYGWMDF-NH2
modifications: also: N-terminal spacer of three alternating D-Gln and three D-Glu, order not given here, M5: Met or Nle
The term Kd denotes the free concentration of one partner at which half of the binding sites on the other are occupied at equilibrium, for simple one-to-one binding. Read a high Kd as a looser complex. As for B1, binding in series [6] was characterised by a dissociation constant (Kd) of 5.8 nM.
